Source: US20120177693A1, “DEEP LUNG PULMONARY DELIVERY OF TREPROSTINIL” (Aradigm Corporation, priority 2008, published 2012)

Test: Venous plasma pharmacokinetics of inhaled treprostinil via AERx Essence or Nebu-Tec Optineb, 14 healthy male subjects
Experimental: On each of two dosing days, eligible subjects underwent dosing with ^99mTc-labeled treprostinil sodium using either the AERx Essence System or the Nebu-Tec Optineb nebulizer. Following their initial study dose, subjects underwent a washout period of approximately 48 hours before completing a second (crossover) study dose.
Immediately following each study dose, subjects underwent gamma scintigraphy and multiple samplings of venous blood to characterize treprostinil lung deposition and plasma pharmacokinetics.
To evaluate treprostinil plasma pharmacokinetics, 16 venous blood samples were drawn into 7.5 ml Potassium EDTA monovette tubes following each study dose (i.e., Essence and Optineb). Sampling occurred approximately 1 hour prior to dosing and at +2, +3, +5, +7, +10, +15, +20, +30, +60, +90, +120, +180, +240, +300, and +360 minutes after the start of each study dose. Thus, a total of 32 blood samples (˜250 mL) were collected for pharmacokinetic assessment over the two dosing days. Immediately upon sampling the sample was identified with a bar coded label bearing details of study number, subject number, sampling time point, sample type and a unique 9 digit identification number. The sample was separated by centrifugation at 1500×g and 4° C. for 10 minutes. Two equal aliquots of plasma/serum were transferred to 2 polypropylene tubes labelled identically to the original blood sample and stored at approximately −20° C. pending analysis. The time at which samples were taken, received into the separating room and placed in the freezer was recorded in the study documentation.
The pharmacokinetic parameters Cmax, AUCT and AUCI were normalised for the dose delivered to the lung, as determined from the scintigraphy data (Tables 14.2.1.5 & 14.2.1.6).

[1] = dose-normalised for the calculated dose to lung
[2] = via AERx, Geometric LS means, dose-normalised for the calculated dose to lung (μg)
[3] = via AERx, Mean, normalised for dose to lung

CCCCC[C@H](O)CC[C@@H]1[C@H]2Cc3cccc(OCC(=O)[O-])c3C[C@H]2C[C@H]1O.[Na+] [treprostinil, (1R,2R,3aS,9aS)-[[2,3,3a,4,9,9a-Hexahydro-2-hydroxyl-1-[(3S)-3-hydroxyoctyl]-1H-benz[f]inden-5-yl]oxy]acetic acid monosodium salt]
Tmax, Median Diff. AERx vs Nebu-Tec (Wilcoxon Matched Pairs Test): 11.5 min | Dose-normalised AUCI, AERx/Nebu-Tec Ratio of geometric LS means [1]: 101.79% | Dose-normalised AUCT, AERx/Nebu-Tec Ratio of geometric LS means [1]: 103.24% | Dose-normalised Cmax, AERx/Nebu-Tec Ratio of geometric LS means (dose-normalised for the calculated dose to lung, monosodium salt): 61.51% | Tmax (human, plasma, inhaled, Tmax, one subject in the nebulizer arm with delayed Tmax): ~20 min | AUC (male, human, plasma, inhaled, 19.58 μg): 0.53 ng·h/mL | AUC(0-inf) (male, human, plasma, inhaled, 19.58 μg, AUCINF—obs, via Optineb, GM): 0.533 ng·h/mL | AUC(0-inf) (male, human, plasma, inhaled, 19.58 μg, AUCINF—obs, via Optineb, Median): 0.546 ng·h/mL | AUC(0-t) (male, human, plasma, inhaled, 19.58 μg, AUCT, via Nebu-Tec, Geometric LS means): 0.51 ng·h/mL | AUC(0-t) (male, human, plasma, inhaled, 19.58 μg, AUClast, via Optineb, GM): 0.51 ng·h/mL | AUC(0-t) (male, human, plasma, inhaled, 19.58 μg, AUClast, via Optineb, Median): 0.531 ng·h/mL | Cmax (male, human, plasma, inhaled, 19.58 μg, Cmax, via Nebu-Tec, Geometric LS means): 0.71 ng/mL | Cmax (male, human, plasma, inhaled, 19.58 μg, Cmax, via Optineb, GM (geometric mean)): 0.707 ng/mL | Cmax (male, human, plasma, inhaled, 19.58 μg, Cmax, via Optineb, Median): 0.696 ng/mL | half-life (male, human, plasma, inhaled, 19.58 μg, T1/2, via Optineb, GM): 38.5 min | half-life (male, human, plasma, inhaled, 19.58 μg, T1/2, via Optineb, Median): 37.3 min | Tmax (male, human, plasma, inhaled, 19.58 μg, Tmax, via Nebu-Tec, Median): 8.5 min | Tmax (male, human, plasma, inhaled, 19.58 μg, Tmax, via Optineb, Median): 8.52 min | AUC(0-inf) (male, human, plasma, inhaled, 26 μg, AUCINF—obs, via AERx, GM): 0.731 ng·h/mL | AUC(0-inf) (male, human, plasma, inhaled, 26 μg, AUCINF—obs, via AERx, Median): 0.767 ng·h/mL | AUC(0-t) (male, human, plasma, inhaled, 26 μg, AUClast, via AERx, GM): 0.709 ng·h/mL | AUC(0-t) (male, human, plasma, inhaled, 26 μg, AUClast, via AERx, Median): 0.749 ng·h/mL | Cmax (male, human, plasma, inhaled, 26 μg, Cmax, via AERx, GM (geometric mean)): 0.586 ng/mL | Cmax (male, human, plasma, inhaled, 26 μg, Cmax, via AERx, Median): 0.548 ng/mL | half-life (male, human, plasma, inhaled, 26 μg, T1/2, via AERx, GM): 46.3 min | half-life (male, human, plasma, inhaled, 26 μg, T1/2, via AERx, Median): 43.6 min | Tmax (male, human, plasma, inhaled, 26 μg, Tmax, via AERx, Median): 25 min | AUC (male, human, plasma, inhaled, 26.07 μg): 0.73 ng·h/mL | AUC(0-t) (male, human, plasma, inhaled, 26.07 μg, AUCT, via AERx, Geometric LS means): 0.71 ng·h/mL | Cmax (male, human, plasma, inhaled, 26.07 μg, Cmax, via AERx, Geometric LS means): 0.59 ng/mL | Tmax (male, human, plasma, inhaled, 26.07 μg, Tmax, via AERx, Median): 25 min | Vd/F (male, human, plasma, inhaled, 2 AERx strips): 44 L | AUC(0-inf) (male, human, plasma, inhaled, 2 AERx strips, AUCINF—obs (AUCI), via AERx, Mean): 0.762 ng·h/mL | AUC(0-t) (male, human, plasma, inhaled, 2 AERx strips, AUClast (AUCT), via AERx, Mean): 0.742 ng·h/mL | Cmax (male, human, plasma, inhaled, 2 AERx strips, Cmax, via AERx, Mean): 0.64 ng/mL | half-life (male, human, plasma, inhaled, 2 AERx strips, T1/2 (elimination half life), via AERx, Mean): 52.2 min | Tmax (male, human, plasma, inhaled, 2 AERx strips, Tmax, via AERx, Mean): 20.6 min | Vd/F (male, human, plasma, inhaled, 6 puffs): 36 L | AUC(0-inf) (male, human, plasma, inhaled, 6 puffs, AUCINF—obs (AUCI), via Optineb, Mean): 0.553 ng·h/mL | AUC(0-t) (male, human, plasma, inhaled, 6 puffs, AUClast (AUCT), via Optineb, Mean): 0.531 ng·h/mL | Cmax (male, human, plasma, inhaled, 6 puffs, Cmax, via Optineb, Mean): 0.762 ng/mL | half-life (male, human, plasma, inhaled, 6 puffs, T1/2 (elimination half life), via Optineb, Mean): 40.1 min | Tmax (male, human, plasma, inhaled, 6 puffs, Tmax, via Optineb, Mean): 8.94 min | Tmax (male, human, plasma, inhaled, TMAX, via AERx Essence System, mean): 21 min | Tmax (male, human, plasma, inhaled, TMAX, via nebulizer (Nebu-Tec OPTINEB), mean): 9 min | AUCI, AERx/Nebu-Tec Ratio of geometric LS means (not dose adjusted): 137.15% | AUCT, AERx/Nebu-Tec Ratio of geometric LS means (not dose adjusted): 139.11% | Cmax, AERx/Nebu-Tec Ratio of geometric LS means (not dose adjusted): 82.88% | Cmax_D (via AERx, GM): 0.023 ng/mL/µg | Vz_F_obs (via AERx, GM): 38614.996 mL | Dose-normalised AUCI [2]: 0.029 ng·h/mL | Dose-normalised AUCT [2]: 0.028 ng·h/mL | Dose-normalised Cmax [2]: 0.023 ng/mL | AUCINF—obs (via AERx, Max): 1.205 ng·h/mL | AUClast (via AERx, Max): 1.196 ng·h/mL | Cmax (via AERx, Max): 1.347 ng/mL | Cmax_D (via AERx, Max): 0.044 ng/mL/µg | T1/2 (via AERx, Max): 2.732 h | Tmax (via AERx, Max): 30 min | Vz_F_obs (via AERx, Max): 133550.416 mL | AUCINF_obs_D (dose normalised AUCI) [3]: 0.029 ng·h/mL/µg | AUClast_D (dose normalised AUCT) [3]: 0.028 ng·h/mL/µg | Cmax_D (dose normalised Cmax) [3]: 0.024 ng/mL/µg | Cmax_D (via AERx, Median): 0.022 ng/mL/µg | Vz_F_obs (via AERx, Median): 34319.392 mL | AUCINF—obs (via AERx, Min): 0.407 ng·h/mL | AUClast (via AERx, Min): 0.375 ng·h/mL | Cmax (via AERx, Min): 0.299 ng/mL | Cmax_D (via AERx, Min): 0.016 ng/mL/µg | T1/2 (via AERx, Min): 0.471 h
